Assay results taken from patent US8791116B2, “Myosin light chain kinase inhibitor compounds, compositions and related methods of use” (Northwestern University, priority 2006, dated 2014).
“Also recorded” adds a separate entry of the source.

Assays:
MLCK = MLCK (Homo sapiens, UniProt Q15746); experiment: MLCK inhibitory activity screen (32P-ATP peptide substrate phosphorylation); type: biochemical; conditions: for IC50: 20 μM peptide substrate, 200 μM ATP, 20 min at 25° C., read-out: MLCK (μM), in vitro inhibition of kinases; for selectivity for MLCK over related protein kinases (in words): compared to DAPK, PKC and PKA
Sequence of MLCK (Q15746 whole entry): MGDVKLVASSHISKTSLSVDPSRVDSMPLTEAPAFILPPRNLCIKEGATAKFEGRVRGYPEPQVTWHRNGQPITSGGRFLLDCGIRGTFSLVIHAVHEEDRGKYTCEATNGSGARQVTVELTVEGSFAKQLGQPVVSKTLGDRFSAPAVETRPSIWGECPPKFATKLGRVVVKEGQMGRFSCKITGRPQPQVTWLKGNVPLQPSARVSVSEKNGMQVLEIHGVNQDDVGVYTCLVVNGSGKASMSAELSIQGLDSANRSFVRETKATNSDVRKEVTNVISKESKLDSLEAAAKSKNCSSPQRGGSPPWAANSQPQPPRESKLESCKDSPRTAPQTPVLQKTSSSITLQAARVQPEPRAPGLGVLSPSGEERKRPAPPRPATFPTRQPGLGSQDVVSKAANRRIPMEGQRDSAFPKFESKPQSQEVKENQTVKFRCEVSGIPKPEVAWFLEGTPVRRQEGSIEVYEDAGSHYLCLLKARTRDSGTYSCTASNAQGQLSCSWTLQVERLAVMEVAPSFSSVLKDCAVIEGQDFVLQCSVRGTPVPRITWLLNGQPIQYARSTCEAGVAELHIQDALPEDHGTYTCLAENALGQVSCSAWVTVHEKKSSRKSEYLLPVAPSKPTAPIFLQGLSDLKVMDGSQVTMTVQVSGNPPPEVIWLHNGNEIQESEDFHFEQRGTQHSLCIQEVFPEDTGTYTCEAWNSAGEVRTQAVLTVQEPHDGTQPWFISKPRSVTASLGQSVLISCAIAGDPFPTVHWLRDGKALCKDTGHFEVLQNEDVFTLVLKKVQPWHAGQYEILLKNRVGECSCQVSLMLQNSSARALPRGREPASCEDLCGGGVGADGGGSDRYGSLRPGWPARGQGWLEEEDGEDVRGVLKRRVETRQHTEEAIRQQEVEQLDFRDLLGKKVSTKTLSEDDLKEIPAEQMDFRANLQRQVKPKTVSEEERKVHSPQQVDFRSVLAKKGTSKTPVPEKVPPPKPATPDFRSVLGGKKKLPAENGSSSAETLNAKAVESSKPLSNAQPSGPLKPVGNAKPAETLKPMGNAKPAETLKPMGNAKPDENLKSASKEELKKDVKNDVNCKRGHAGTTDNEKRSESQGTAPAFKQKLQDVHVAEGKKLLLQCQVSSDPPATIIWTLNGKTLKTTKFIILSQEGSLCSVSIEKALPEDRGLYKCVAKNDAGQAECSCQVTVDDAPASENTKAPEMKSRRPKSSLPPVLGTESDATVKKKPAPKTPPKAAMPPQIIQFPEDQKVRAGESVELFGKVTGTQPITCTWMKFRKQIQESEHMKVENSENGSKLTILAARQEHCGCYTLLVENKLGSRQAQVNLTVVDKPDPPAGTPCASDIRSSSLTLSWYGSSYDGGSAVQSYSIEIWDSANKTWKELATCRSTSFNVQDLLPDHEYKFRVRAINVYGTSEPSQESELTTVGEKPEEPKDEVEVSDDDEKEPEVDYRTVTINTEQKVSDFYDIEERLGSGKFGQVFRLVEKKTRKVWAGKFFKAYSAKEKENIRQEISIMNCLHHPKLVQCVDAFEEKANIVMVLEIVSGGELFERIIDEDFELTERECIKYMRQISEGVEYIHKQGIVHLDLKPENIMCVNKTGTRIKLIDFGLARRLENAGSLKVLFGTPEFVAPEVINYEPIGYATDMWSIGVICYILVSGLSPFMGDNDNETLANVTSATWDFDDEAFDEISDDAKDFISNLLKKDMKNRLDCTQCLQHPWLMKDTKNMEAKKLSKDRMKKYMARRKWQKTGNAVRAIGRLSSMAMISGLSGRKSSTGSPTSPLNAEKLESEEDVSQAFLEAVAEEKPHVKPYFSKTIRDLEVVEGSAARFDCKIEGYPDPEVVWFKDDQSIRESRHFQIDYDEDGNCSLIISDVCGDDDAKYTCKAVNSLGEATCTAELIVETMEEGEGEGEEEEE
Protocol: (§1) MLCK inhibitory activity screens were done by incubation with 20 μM peptide substrate ([…]), 200 μM ATP and [^32P]-ATP (2.5 μCi per reaction) in assay buffer (50 mM HEPES, pH 7.5 with KOH, 5 mM MgCl2, 0.15 M KCl, 0.015 M NaCl, 1 mM DTT) with 0.1 mM CaCl2 and 1 μM calmodulin (New England Biolabs, MA). [T. J. Lukas, S. Mirzoeva, U. Slomczynska and D. M. Watterson, J. Med. Chem. 42 (1999) 910-9.] Reactions were initiated by addition of MLCK protein and incubated for 20 min at 25° C. Reactions were spotted onto P-81 paper (Whatman, Clifton, N.J.), washed with 75 mM H3PO4 and 95% EtOH, and quantified by scintillation counting in EcoScintO (National Diagnostics, Atlanta, Ga.). Testing of compounds for kinase inhibitory activity against the structurally and functionally related kinases death-associated protein kinase (DAPK) and the signal transduction pathway relevant kinases protein kinase A (PKA) and protein kinase C (PKC) was performed as described by using the corresponding peptide substrates and assay conditions. [[…]. Guo, […]. Bourguignon, […]. Van Eldik and D. M. Watterson, J. Med. Chem 45 (2002) 563-6; A. M. Schumacher, […] and D. M. Watterson, Biochemistry 43 (2004) 8116-24; […]. Schumacher and D. M. Watterson, Pharmacol Ther 93 (2002) 217-24; […]. Schumacher, C. Weiss, M. Egli and D. M. Watterson, J. Biol. Chem. 276 (2001) 38956-65; D. M. Watterson, S. Mirzoeva, L. Guo, […]. Bourguignon, […] and L. J. Van Eldik, Neurochem Int. 39 (2001) 459-68.]

[1] = target: death-associated protein kinase (DAPK) (Homo sapiens, UniProt P53355); experiment: Kinase inhibitory activity against death-associated protein kinase; type: biochemical; conditions: read-out: DAPK (μM), in vitro inhibition of kinases
Sequence of death-associated protein kinase (DAPK) (P53355 1-285 limits assumed, species assumed): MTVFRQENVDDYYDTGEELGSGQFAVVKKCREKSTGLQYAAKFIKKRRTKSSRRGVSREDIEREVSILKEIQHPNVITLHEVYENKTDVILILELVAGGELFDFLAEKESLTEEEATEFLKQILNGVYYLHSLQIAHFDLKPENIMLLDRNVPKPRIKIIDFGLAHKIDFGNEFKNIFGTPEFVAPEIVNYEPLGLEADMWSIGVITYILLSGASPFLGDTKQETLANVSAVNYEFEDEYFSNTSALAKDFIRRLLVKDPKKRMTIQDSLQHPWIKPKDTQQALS
Protocol: as §1

protein kinase C (PKC) = experiment: Kinase inhibitory activity against protein kinase C; type: biochemical; conditions: read-out: PKC (μM), in vitro inhibition of kinases
Protocol: MLCK inhibitory activity screens were done by incubation with 20 μM peptide substrate (KKRPQRATSNVFAM-NH2), 200 μM ATP and [^32P]-ATP (2.5 μCi per reaction) in assay buffer (50 mM HEPES, pH 7.5 with KOH, 5 mM MgCl2, 0.15 M KCl, 0.015 M NaCl, 1 mM DTT) with 0.1 mM CaCl2 and 1 μM calmodulin (New England Biolabs, MA). [T. J. Lukas, S. Mirzoeva, U. Slomczynska and D. M. Watterson, J. Med. Chem. 42 (1999) 910-9.] Reactions were initiated by addition of MLCK protein and incubated for 20 min at 25° C. Reactions were spotted onto P-81 paper (Whatman, Clifton, N.J.), washed with 75 mM H3PO4 and 95% EtOH, and quantified by scintillation counting in EcoScintO (National Diagnostics, Atlanta, Ga.). Testing of compounds for kinase inhibitory activity against the structurally and functionally related kinases death-associated protein kinase (DAPK) and the signal transduction pathway relevant kinases protein kinase A (PKA) and protein kinase C (PKC) was performed as described by using the corresponding peptide substrates and assay conditions. [S. Mirzoeva, A. Sawkar, M. Zasadzki, L. Guo, A. V. Velentza, V. Dunlap, J. J. Bourguignon, H. Ramstrom, J. Haiech, L. J. Van Eldik and D. M. Watterson, J. Med. Chem 45 (2002) 563-6; A. M. Schumacher, J. P. Schavocky, A. V. Velentza, S. Mirzoeva and D. M. Watterson, Biochemistry 43 (2004) 8116-24; A. V. Velentza, A. M. Schumacher and D. M. Watterson, Pharmacol Ther 93 (2002) 217-24; A. V. Velentza, A. M. Schumacher, C. Weiss, M. Egli and D. M. Watterson, J. Biol. Chem. 276 (2001) 38956-65; D. M. Watterson, S. Mirzoeva, L. Guo, A. Whyte, J. J. Bourguignon, M. Hibert, J. Haiech and L. J. Van Eldik, Neurochem Int. 39 (2001) 459-68.]

protein kinase A (PKA) = protein kinase A (PKA) (Homo sapiens, UniProt P17612); experiment: Kinase inhibitory activity against protein kinase A; type: biochemical; conditions: read-out: PKA (μM), in vitro inhibition of kinases
Protocol: as §1

[2] = tested on: LPS induced vascular leak in the lungs; experiment: Bacterial toxin (LPS)-induced pulmonary vascular leak, Evans blue dye in lung; type: in vivo; conditions: mice, LPS 10 mg/kg i.p., compound 5 mg/kg i.p., 24 h
Protocol: Adult (20-30 g) female C57B1/6 mice were obtained from a commercial vendor (Harlan, Indianapolis, Ind.). The generation and characterization of the MLCK210 KO mouse strain was previously described. [M. S. Wainwright, J. Rossi, J. Schavocky, S. Crawford, D. Steinhorn, […]. Jia, […]. Van Eldik and D. M. Watterson, Proc. Natl. Acad. Sci. USA 100 (2003) 6233-8.] All animal procedures were performed in accordance with relevant National Institutes of Health guidelines and approved by the Institutional Animal Care and Use Committee of Northwestern University. Pulmonary vascular leak after injurious endotoxin exposure was examined essentially as previously described, above, except using the increase in Evans blue dye in the lung as a quantitative end point. […] The levels of Evans blue in the serum and the tissue supernatant were then determined by measuring the absorbance at 620 nm. The reading at 620 nm (E620) was corrected for the presence of contaminating heme pigments in the samples by measuring the absorbance at 740 nm (E740) and using the correction formula E620=E620-(1.426×E740+0.030). The amount of Evans blue in the samples was then calculated using a standard curve obtained with known amounts of Evans blue. The results were normalized by considering the mean level of Evans blue measured in LPS-treated mice as 100%.

[3] = In vitro metabolic stability with human liver microsomes; type: in vitro ADME; conditions: 5 μM compound, 10 and 30 min at 37° C., HPLC
Protocol: A standard screening of compounds for in vitro metabolic stability with human liver microsomes was done at 5 μM of compound using commercially available, calibrated human liver microsomes (BD Biosciences, Bedford, Mass.) and an NADPH-regenerating system. [D. Ackley, K. Rockich and T. Baker. in (Caldwell, Z. Y. a. G. W., ed.) Methods in pharmacology and toxicology optimization in drug discovery: in vitro methods, Humana Press Inc., Totowa, N.J. 2004, pp. 151-62.] Briefly, reaction mixtures were prepared in 0.1 M potassium phosphate buffer and contained 1.6 mg/ml microsomal protein, 5 μM test compound, 1.3 mM NADPH, 3.3 mM MgCl2, 0.4 U/ml glucose-6-phosphate dehydrogenase, and 3.3 mM glucose-6-phosphate in a total volume of 300 μl. Reactions were incubated for 10 and 30 minutes at 37° C. and halted by addition of cold acetonitrile. The mixture was centrifuged at 10000 g for 10 min and 20 μl of supernatant was analyzed by HPLC to quantify the percentage of the initial amount of compound remaining after incubation. The HPLC mobile phase consisted of 5% acetonitrile in water as reagent A and 80% acetonitrile/0.08% formic acid/water as reagent B at a flow rate of 0.2 ml/min. The gradient consisted of the following variations in % B: begin with % B at 0 for 2 min, 0-100% from 2 to 22 min, isocratic until 24 min. Peak quantification was done based upon absorption measurements at 260 nm relative to a standard curve obtained by serial dilutions of known amounts of compounds.

SMILES | IC50 (MLCK) | selectivity for MLCK over related protein kinases (in words) (MLCK) | IC50 [1] | IC50 (protein kinase C (PKC)) | IC50 (protein kinase A (PKA)) | selectivity for MLCK versus DAPK (MLCK; ratio from Table 1) | level of Evans blue dye in lung tissue (pulmonary vascular leak) [2] | amount of compound remaining after incubation with human liver microsomes [3] | amount of compound remaining after incubation with human liver microsomes ([3]; listed as compound 6) | MLCK inhibitory activity relative to parent compound (in words) (MLCK; in vitro, versus compound 6)
N=c1ccc(-c2ccccc2)nn1CCCCCCCCCCC(=O)NCCc1c[nH]cn1 [Compound 5, N-(2-(1H-imidazol-4-yl)ethyl)-11-(6-imino-3-phenylpyridazin-1(6H)-yl)undecanamide] | 6.3 µM | more selective than compounds 1 or 2 | 271 µM | 166 µM | > 1000 µM | – | – | – | – | –
CN1CCCC1CCNC(=O)CCCCCCCCCCn1nc(-c2ccccc2)ccc1=N (stereo not drawn) [Compound 6, 11-(6-imino-3-phenylpyridazin-1(6H)-yl)-N-(2-(1-methylpyrrolidin-2-yl)ethyl)-undecanamide] | 13.3 µM | highly selective for MLCK; also recorded: selective for MLCK compared to closely related protein kinases | > 1000 µM | 414 µM | > 1000 µM | over 76 times | efficacious in vivo to reduce LPS-induced pulmonary vascular leak; also recorded: significantly lower (*p<0.05) levels of dye | stable | did not decrease up to 30 minutes of incubation; also recorded: The majority of compound 6 (filled bar) remains after 10 and 30 min incubation times | –
N=c1ccc(-c2ccccc2)nn1CCCCCCCCCCC(=O)NCCC1CCCC1 [Compound 10, N-(2-cyclopentylethyl)-11-(6-imino-3-phenylpyridazin-1(6H)-yl)undecanamide] | 2.5 µM | selective for MLCK | 206 µM | 68 µM | > 1000 µM | – | – | significantly lower than compound 6; also recorded: significantly different (***p<0.001) at 10 and 30 min compared to zero min | – | more active in vitro than the parent compound 6
